From patent publication US20260103730A1, “METHOD FOR RELEASING VIRAL VECTORS” (PCI Biotech AS, priority 2022, published 2026)

Columns and labels:
Jurkat cells [1] = assay: Hoechst 33258 entry by flow cytometry as measure of cell death / pore formation; type: cell-based
Experimental: (§1) Jurkat cells were incubated with 0.1 ug/mL or 1 ug/mL fimaporfin (TPCS2a, tetraphenyl chlorin disulfonate) for 10 minutes in complete RPMI 1640 medium. Following irradiation, the cells were incubated for 48 hours at 37° C. and 5% CO2, after which several analyses of cell health were performed.
(§2) Blue light irradiation/illumination was performed using LumiSource according to the manufacturer's protocol (PCI Biotech)
Entry of Hoechst 33258 (Thermo Fisher Scientific) into cells was performed as a measure of cell death. When Hoechst 33258 enters cells, it binds to double-stranded DNA generating a strong fluorescent signal. Entry of the stain into the cells requires the presence of pores in the plasma membrane and is a late-stage measure of cell health, i.e. cell death. Hoechst 33258 staining and flow cytometry was performed according to the manufacturer's protocol (Thermo Fisher Scientific).

Jurkat cells [2] = assay: MTS assay of metabolic activity/viability after TPCS2a and blue light; type: cell-based; conditions: 48 hours incubation
Experimental: as §1, §2
MTS metabolism was performed as a measure of metabolic activity and performed according the manufacturer's protocol (Promega).

HEK293T cells [3] = assay: Genomic DNA leakage into supernatant by ddPCR (albumin primers); type: cell-based, human; conditions: TPCS2a 5 μg/mL 10 min, irradiation 5 minutes, 2 hours incubation
Experimental: 75-80% confluent HEK293T cells were incubated with 5 μg/mL TPCS2a or 0.5% Tween 20 in complete DMEM for 10 minutes followed by irradiation for 5 minutes (where indicated). Blue light irradiation/illumination was performed using LumiSource according to the manufacturer's protocol (PCI Biotech). A negative control of complete DMEM containing the TPCS2a solvent was used to control for solvent effects on cell lysis.
Following irradiation, the cells were incubated for 2 hours at 37° C. and 5% CO2, after which supernatants were collected. Cell debris (if any) was eliminated by centrifugation. Genomic DNA from all samples was quantified by ddPCR (Bio-Rad QX600) using primers targeting human albumin DNA.
Albumin DNA values were normalised to the negative control.

HEK293 cells [4] = assay: DNA leakage by Hoechst 33258 staining and microscopy, photochemical vs detergent lysis; type: cell-based; conditions: HEK293, TPCS2a 5 μg/mL or Tween 20 0.5%, 10 min, irradiation 5 minutes, 2 hours after
Experimental: HEK293 cells were incubated with 5 μg/mL TPCS2a or 0.5% Tween 20 in complete DMEM for 10 minutes followed by irradiation for 5 minutes. Blue light irradiation/illumination was performed using LumiSource according to the manufacturer's protocol (PCI Biotech). A negative control of complete DMEM containing the TPCS2a solvent was used to control for solvent effects on cell morphology and lysis.
Hoechst 33258 stain was added to samples 2 minutes prior to imaging. Hoechst 33258 staining was performed according to the manufacturer's protocol (Thermo Fisher Scientific). The cells were imaged by light (Nomarski) and fluorescence microscopy prior to irradiation and 2 hours after irradiation. Imaging was performed as described in Example 2. Changes to cellular morphology were analysed visually.

HEK293T suspension cells = assay: Photochemical lysis of suspension cells studied by microscopy; type: cell-based; conditions: 5 μg/mL 10 min + blue light 5 minutes, 2 hours after
Experimental: HEK293T suspension cells were treated with 5 μg/mL TPCS2a (fimaporfin) or fimaporfin solvent without photosensitiser (“Neg. Ctrl”) in complete DMEM for 10 minutes, followed by blue light illumination for 5 minutes (as described in Example 6). Hoechst 33258 was added to samples 2 minutes prior to imaging. Hoechst 33258 DNA stain is not readily cell penetrable, and therefore stains free DNA or DNA in cells with plasma membrane pores.
Cells were washed in PBS/1% FBS prior to imaging to remove unbound fimaporfin. Cells were imaged by light (Nomarski) microscopy and fimaporfin and Hoechst fluorescence by fluorescence microscopy after 10 minutes (i.e. prior to illumination) and 2 hours after illumination. Imaging was conducted as set out in Example 2.

HEK293 cells [5] = assay: Cellular morphology after photochemical treatment (Nomarski/fluorescence microscopy); type: cell-based; conditions: HEK293, 5 μg/mL 10 min
Experimental: HEK293 cells were incubated with 5 μg/mL TPCS2a complete DMEM for 10 minutes, followed by irradiation with blue light for 5 minutes. Blue light irradiation/illumination was performed using LumiSource according to the manufacturer's protocol (PCI Biotech). Cells were imaged by light (Nomarski) and fluorescence microscopy prior to illumination and 2 hours after illumination. Imaging was performed as described in Example 2.

Jurkat cells [6] = assay: Cell counting (Coulter Counter) as measure of cell growth; type: cell-based; conditions: higher dose (1 ug/mL) vs 0.1 ug/mL at corresponding irradiation times, 48 hours after irradiation
Experimental: as §1, §2
Cell counting was performed as a measure of cell growth using a Coulter Counter by Beckman Coulter according to the manufacturer's protocol. Counting was performed 48 hours after irradiation.

HEK293T cells [7] = assay: Release of AAV2 viral vectors from producer cells (ddPCR of DNase-resistant vg in supernatant); type: cell-based; conditions: adherent HEK293T, TPCS2a 5 μg/mL 10 min, blue light 5 minutes, supernatant 2 hours later
Experimental: 75-80% confluent HEK293T cells were triple transfected with Adeno-associated virus serotype 2 (AAV)-encoding plasmids (pHelper, AAV2 RepCap, and pscAAV-GFP plasmids) using polyethylenimine (PEI) in 12 well plates, resulting in AAV2 production. For each transfection, plasmids and PEI were added to complete DMEM to a total volume of 640 μL, followed by vortexing for 10 seconds and 15 minutes incubation at room temperature. Medium was removed from the HEK293T cells in 12 well plates, and replaced by the DMEM-plasmid-PEI mixture. Cells were incubated for three days at 37° C. and 5% CO2. Three days after transfection, cells were subjected to treatments (as described below) for 10 minutes in complete DMEM.
Treatments were: • a) Untransfected cells, no further treatment. • b) Transfected cells. Received photosensitiser solvent but no photosensitiser (to control for solvent effect on cell lysis). • c) Transfected cells. Incubated with 5 μg/mL TPCS2a (Fimaporfin) for 10 minutes. […]
Supernatants were harvested 2 hours later and cell debris (if any) was eliminated by centrifugation. DNase-resistant viral genome (vg) from all samples was quantified by digital droplet PCR amplification (Bio-Rad QX600) of DNase-resistant (i.e. viral capsid-encapsulated) DNA using primers targeting inverted terminal repeats. Viral vector yield was expressed as “vg/mL” (AAV vector genomes per millilitre).

HEK293 cells [8] = assay: LDH release assay (leakage of cytosolic material); type: cell-based; conditions: 10 min, assessed after 2 hours
Experimental: HEK293 cells were incubated with either 0.5 μg/mL TPCS2a or 0.5% Tween 20 in serum-free DMEM. Alternatively, HEK293 cells were incubated with 50 μg/mL TPCS2a in 10% serum supplemented DMEM for 10 minutes. The cells were subsequently irradiated with blue light for 5 minutes or received no irradiation. Blue light irradiation/illumination was performed using LumiSource according to the manufacturer's protocol (PCI Biotech). The negative control (Neg. Ctrl) was either serum-free DMEM or 10% Fetal Bovine Serum (FBS) supplemented DMEM containing the TPCS2a solvent to control for the effect of solvents on LDH leakage. Background absorbance values of the LDH assay was assessed using DMEM with increasing concentrations of FBS at 1%, 5% and 10%.
LDH release was performed as a measure of cell lysis and release of cytosolic material using CyQUANT LDH Cytotoxicity Assay (Thermo Fisher Scientific) according to manufacturer's protocol. Cells were seeded in 48 well plates one day prior to treatments in 400 μL. The following day, treatments were given for 10 minutes at 37° C. 5% CO2, prior to 5 minutes illumination. Plates were subsequently incubated for 2 hours in an incubator (37° C. 5% CO2), then centrifuged for 5 minutes at 400×g, after which 50 μL supernatant from each sample was transferred to a 96 well plate for absorbance measurements according to kit instructions. 490 nm absorbance reflects LDH and 680 nm reflects absorbance background from the instrument. 490 nm absorbance minus 680 nm absorbance is directly proportional to the amount of LDH released into the medium.

tetraphenyl chlorin disulfonate [TPCS2a]
cell death (Hoechst 33258 staining) (Jurkat cells [1]; TPCS2a 0.1 μg/ml 10 min, various irradiation times): some cell death but only at longer irradiation times
cell death (Hoechst 33258 staining) (Jurkat cells [1]; TPCS2a 1 μg/ml 10 min, after 2 minutes of irradiation): significant cell death
cell viability (MTS absorbance) (Jurkat cells [2]; TPCS2a 1 μg/ml 10 min, 4-5 minutes irradiation): total loss of viability
cell viability (MTS absorbance) (Jurkat cells [2]; TPCS2a 0.1 or 1 ug/mL 10 min, blue light 2-5 minutes): reductions in viability
genomic DNA leakage into supernatant (ddPCR) (HEK293T cells [3]): does not cause the leakage of genomic DNA
DNA leakage (Hoechst 33258 microscopy) (HEK293 cells [4]): DNA stays within the boundaries of the cell corpse
DNA retention (Hoechst 33258 microscopy) (HEK293T suspension cells): DNA is retained within the boundaries of the lysed cells
plasma membrane disruption (HEK293T suspension cells): opens up the plasma membrane
cellular morphology (HEK293 cells [5]; absence of irradiation): do not exhibit changes to their cellular morphology
cellular morphology (HEK293 cells [5]; blue light 5 minutes, 2 hours after illumination): dramatically altered cellular morphology and had shifted to a lytic phenotype
cell density (cell counting) (Jurkat cells [6]): reduced cell density
release of AAV2 viral vectors into supernatant (HEK293T cells [7]): releases non-enveloped viral vectors from producer cells
LDH release (HEK293 cells [8]; HEK293, 10% FBS DMEM, TPCS2a 50 μg/mL, blue light 5 minutes): increased significantly
LDH release (HEK293 cells [8]; HEK293, 10% FBS DMEM, TPCS2a 50 μg/mL, no irradiation): comparable levels of LDH release to HEK293 cells treated with a negative control
LDH release (HEK293 cells [8]; HEK293, serum-free DMEM, TPCS2a 0.5 μg/mL or Tween 20 0.5%, blue light 5 minutes): increased significantly
LDH release (HEK293 cells [8]; HEK293, serum-free DMEM, TPCS2a 0.5 μg/mL or Tween 20 0.5%, no irradiation): comparable levels of LDH release to HEK293 cells treated with a negative control
